Measurements taken from patent US20230045522A1, “COMPOSITIONS AND METHODS TO MODULATE GLUCOSE HOMEOSTASIS” (The Board of Supervisors of Louisiana State University and …, priority 2019, published 2023).
Residues, ends and D or L forms follow the SMILES beside them. *: point of attachment. Cbz = O=C(OCc1ccccc1)*

Experiments:
[1] = system: AMPK; assay: AMPK Thr172 phosphorylation in C2C12 myotubes (immunoblot); type: cell-based, murine; conditions: for increase in phosphorylation of AMPK (phospho-AMPK to total AMPK, fold over 0-time): 1 hour of exposure, PMI-5011 10 μg/ml, AICAR 0.5 mM, metformin 2 mM
Source text: Results shown are representative of three independent experiments.

[2] = system: SIRT1; assay: SIRT1 protein expression in skeletal muscle of mice; type: in vivo, C57BL/6J mice; conditions: gavage
Description: Male C57BL/6J mice were obtained from Jackson Laboratories (Bar Harbor, Me., USA). […] The animals were housed singly with a 12 hour light-dark cycle at 24° C. At 4 weeks of age, the mice were placed on a very high fat diet (60 kcal % fat, D12492, Research Diets) for 16 weeks. Body weight was measured weekly. […] Blood glucose levels were assayed at baseline and each hour thereafter up to 6 hours post gavage. The mice were euthanized and tissues were collected for analysis at 6 hours after gavage.
The tissue and cell lysates were centrifuged at 14,000×g for 10 minutes at 4° C. Protein concentrations were determined using BCA assays (Thermo Fisher Scientific, Rockford, Ill., USA) and the resulting supernatants (50 μg) were resolved by 10% SDS-PAGE and subjected to immunoblotting. Nitrocellulose membranes were incubated with antibodies for 1-2 hours at RT or overnight at 4° C. Image J software was used for quantification of the western blot band intensities.

[3] = Blood glucose in very high fat diet obese insulin-resistant mice, 6 h after gavage; type: in vivo, C57BL/6J male mice; conditions: 6 hour treatment, PMI-5011 500 mg/kg, KOE 500 mg/kg, KOF 100 mg/kg, 2 at 100 or 300 mg/kg, metformin 300 mg/kg
Description: (A) C57BL/6J male mice were fed a 60% kcal fat diet for 16 weeks prior to a 6 h treatment with labrasol (vehicle), metformin, PMI-5011, reconstituted PMI-5011 (RE=KOE+KOF), KOE, KOF, synthetic 2. […] Statistical significance is reported as mean−/+standard deviation, compared to (vehicle) control.
(A) Absolute (mg/dL) and (B) percent change in blood glucose levels from baseline for each treatment group six hours after treatment. […] Statistical significance is reported as mean−/+standard deviation, compared to (vehicle) control; ns, not significant; *p<0.05; ** p<0.01; *** p<0.001.
Glucose Homeostasis. […] To address this, C57BL/6J male mice were fed a very high fat diet (60% kcal fat, VHFD) over 16 weeks to induce obesity, prior to testing the ability of PMI-5011 (500 mg/kg), KOE (500 mg/kg), KOF (100 mg/kg), and purified 2 at 100 or 300 mg/kg body weight to alter blood glucose levels (FIG. 4). Metformin (300 mg/kg) was used as a positive control.
Animal Experiments. Male C57BL/6J mice were obtained from Jackson Laboratories (Bar Harbor, Me.). […] The animals were housed singly with a 12 h light-dark cycle at 24° C. […] Body weight was measured weekly. […]
Blood and Tissue Chemistry. Fasting glucose levels were measured in whole blood using a Breeze2 glucometer (Bayer, Leverkusen, Germany). […]

[4] = system: LKB1; assay: LKB1 Ser428 phosphorylation in skeletal muscle of mice; type: in vivo, C57BL/6J mice; conditions: gavage; compared to vehicle gavaged mice
Description: Tubulin or β-actin are included as a loading control.
Male C57BL/6J mice were obtained from Jackson Laboratories (Bar Harbor, Me., USA). All animal experiments were approved by the Rutgers University Animal Care and Use Committee (Protocol #04-023) and were in compliance with the NIH Guide for the Care and Use of Laboratory. The animals were housed singly with a 12 hour light-dark cycle at 24° C. At 4 weeks of age, the mice were placed on a very high fat diet (60 kcal % fat, D12492, Research Diets) for 16 weeks. Body weight was measured weekly. […] Blood glucose levels were assayed at baseline and each hour thereafter up to 6 hours post gavage. The mice were euthanized and tissues were collected for analysis at 6 hours after gavage.
C2C12 myotube lysates were prepared by sonication in 20 mM Tris pH 7.4, 1% Igepal CA630, 5 mM EDTA with 10 mM Na4P2O7, 100 mM NaF, 2 mM Na3VO4, 1 mM PMSF, 10 μg/ml aprotinin, 1 μg/ml pepstatin, and 5 μg/ml leupeptin. The tissue and cell lysates were centrifuged at 14,000×g for 10 minutes at 4° C. Protein concentrations were determined using BCA assays (Thermo Fisher Scientific, Rockford, Ill., USA) and the resulting supernatants (50 μg) were resolved by 10% SDS-PAGE and subjected to immunoblotting. […] Image J software was used for quantification of the western blot band intensities.

[5] = system: C2C12 myotubes; assay: Uptake of bioactives into C2C12 myotubes treated with PMI-5011 (UPLC/MS); conditions: PMI-5011 10 μg/mL
Description: (§1) C2C12 myotubes were incubated with vehicle control (DMSO) or PMI-5011 (10 μg/mL) for 1, 6, or 16 h as indicated. At each time point, (A) the medium and washes were collected at neutral pH, (B) this was followed by collection of surface bound compounds at acidic pH and cell lysates that were separated into soluble (Lysate) and insoluble fractions (Pellet) for analysis of content by UPLC/MS.
(§2) Murine C2C12 (ATCC; #CRL-1771) or rat L6 myoblasts (ATCC, #CRL-1458) were cultured in DMEM, high glucose (25 mM) with 10% FBS, 2 mM glutamine, and antibiotics (100 units/mL penicillin G and 100 μg/mL streptomycin) in a humidified chamber at 37° C. and 5% CO2. To obtain fully differentiated myotubes, the medium was exchanged for DMEM, high glucose with 2% horse serum, glutamine, and antibiotics when the myoblasts reached confluence. The medium was replaced every 48 hours, and the cells were maintained in this medium until fully differentiated, when the medium was exchanged for DMEM, low glucose (5 mM) with 2% horse serum. The myotubes were fully formed by the fourth day post-induction. The experiments analyzing the impact of each experimental material on insulin signaling in the presence of palmitate-induced insulin resistance were performed as described previously.^31 To determine uptake of bioactives into the myotubes, the cells were treated with PMI-5011 (10 μg/mL) for 0, 1, or 16 h prior to medium collection. At each time point, the cells were thoroughly rinsed with D-Hanks, pH 7.4 at 4° C., followed by incubation with D-Hanks buffer, pH 4.0 at 4° C. for 30 min with gentle rocking to remove surface-bound compounds. Cells were then collected in denaturing buffer containing 50 mM Tris-Cl, pH 7.4 with 150 mM NaCl, 1 mM EDTA, 1% Igepal, 0.5% Na-deoxycholate, 0.1% SDS, protease inhibitors (1 μM PMSF, 10 μg/mL aprotinin, 1 μg/mL pepstatin, 5 μg/mL leupeptin). The harvested cells were sonicated on ice and the supernatant and pellet were collected by centrifugation at 13,400×g for 10 min at 4° C.
(§3) UPLC/MS Analysis of Cell Preparations. […]

[6] = system: C2C12 myotubes; conditions: mouse, 10 μg/mL
Description: as §1, §2, §3

SMILES: CC(C)C[C@@H](C=O)NC(=O)[C@H](CC(C)C)NC(=O)[C@H](CC(C)C)NC(=O)OCc1ccccc1 [MG132] (Cbz-Leu-Leu-Leu-aldehyde)
- AMPK phosphorylation at Thr172 under proteasome inhibition ([1]; MG132 10 μM, up to 4 hours): reduced AMPK phosphorylation

SMILES: NC(=O)c1ncn([C@@H]2O[C@H](COP(=O)(O)O)[C@@H](O)[C@H]2O)c1N [AICAR, 5-Aminoimidazole-4-carboxamide ribonucleotide]
- increase in phosphorylation of AMPK (phospho-AMPK to total AMPK, fold over 0-time) [1]: 2.4 fold

SMILES: CN(C)C(=N)N=C(N)N [metformin]
- protein expression of SIRT1 [2]: did not observe an increase
- blood glucose levels [3]: significantly reduced
- phosphorylation of LKB1 Ser428 in skeletal muscle [4]: stimulate LKB1 Ser428 phosphorylation
- increase in phosphorylation of AMPK (phospho-AMPK to total AMPK, fold over 0-time) [1]: 1.4 fold

SMILES: O=c1cc(Oc2ccc(O)cc2)oc2cc(O)cc(O)c12 [6-demethoxycapillarisin]
- detection in the pellets of treated cells ([5]; insoluble fraction): not detected
- detection in the samples from treated cells ([5]; not quantified): detected

SMILES: COc1ccc(CCC(=O)c2ccc(O)cc2O)cc1 [Compound 2, 2′,4′-dihydroxy-4-methoxydihydrochalcone]
- detectability of 2 after 16 hours [6]: undetectable after 16 hours
